Here are results for 1 compound from patent US10314771B2, “Methods and compositions for preventing and treating tooth erosion” (University of Tennessee Research Foundation, priority 2013, dated 2019).

The procedure of this data set: The capacity of sodium bicarbonate to neutralize acid saliva was assessed. A pool of saliva was collected from 5 individuals, and the normal pH of the saliva was measured before brushing or eating. […] In order to simulate an acidic challenge, the pH of the saliva was adjusted to 2.5 with 0.01M HCl.
The saliva was titrated with a 3M sodium bicarbonate solution and measured the volume of solution necessary to neutralize the saliva to a pH of 6.8.

`O=C([O-])O.[Na+]` [Sodium Bicarbonate, sodium bicarbonate]: under “3M solution”, the “volume needed to neutralize the acidic saliva to a pH of 7.0” value was 2.0 mLs. Moreover, the “rinsing time sufficient to help neutralize the saliva” value (rinsing with a sodium bicarbonate solution) is 30 s.
